# Assay results published in patent publication US9758492B2, “IDO inhibitors” (Bristol-Myers Squibb Company, priority 2013, dated 2017).
# Molecular target: IDO (Homo sapiens, UniProt P14902)
# Assay: LLE_IDO_ABS_DR (IDO assay)
# Sequence of IDO (P14902 whole entry): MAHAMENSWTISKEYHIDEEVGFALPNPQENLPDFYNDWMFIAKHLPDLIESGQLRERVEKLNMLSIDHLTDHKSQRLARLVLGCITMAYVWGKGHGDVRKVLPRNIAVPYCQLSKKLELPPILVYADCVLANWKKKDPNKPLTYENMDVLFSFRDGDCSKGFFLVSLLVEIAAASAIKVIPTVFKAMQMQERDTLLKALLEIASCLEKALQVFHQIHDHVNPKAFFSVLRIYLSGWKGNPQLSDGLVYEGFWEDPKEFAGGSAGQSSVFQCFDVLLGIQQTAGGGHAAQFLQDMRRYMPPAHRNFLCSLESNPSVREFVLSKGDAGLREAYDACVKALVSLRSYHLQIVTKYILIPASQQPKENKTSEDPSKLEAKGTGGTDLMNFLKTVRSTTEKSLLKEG
row,SMILES,IC50 [nM]
1,"CC(C)CN(CC(C)C)c1ccc(-c2ccccc2-c2nn[nH]n2)cc1NC(=O)NC(C)(C)Cc1ccc(F)cc1 [Example 240, 1-(4-(diisobutylamino)-2′-(2H-tetrazol-5-yl)-[1,1′-biphenyl]-3-yl)-3-(1-(4-fluorophenyl)-2-methylpropan-2-yl)urea]",2230
2,"C#Cc1cccc(NC(=O)Nc2cc(-c3ccccc3-c3nnn[nH]3)ccc2N(CC(C)C)CC(C)C)c1 [Example 241, 1-(4-(diisobutylamino)-2′-(1H-tetrazol-5-yl)-[1,1′-biphenyl]-3-yl)-3-(3-ethynylphenyl)urea]",20
3,"C#CCOc1cccc(NC(=O)Nc2cc(-c3ccccc3-c3nnn[nH]3)ccc2N(CC(C)C)CC(C)C)c1 [Example 242, 1-(4-(diisobutylamino)-2′-(1H-tetrazol-5-yl)-[1,1′-biphenyl]-3-yl)-3-(3-(prop-2-yn-1-yloxy)phenyl)urea]",4.72
4,"CC(C)CN(CC(C)C)c1ccc(-c2ccccc2-c2nnn[nH]2)cc1NC(=O)Nc1c(F)cc(Cl)cc1F [Example 243, 1-(4-chloro-2,6-difluorophenyl)-3-(4-(diisobutylamino)-2′-(1H-tetrazol-5-yl)-[1,1′-biphenyl]-3-yl)urea]",0.76
5,C#CCOc1ccc(NC(=O)Nc2cc(-c3ccccc3-c3nnn[nH]3)ccc2N(CC(C)C)CC(C)C)cc1 [Example 244],9.3
6,"CC(C)CNC(=O)Nc1cc(-c2ccccc2-c2nnn[nH]2)ccc1N(CC(C)C)CC(C)C [Example 245, 1-(4-(diisobutylamino)-2′-(1H-tetrazol-5-yl)-[1,1′-biphenyl]-3-yl)-3-isobutylurea]",180
7,"CC(C)CN(CC(C)C)c1ccc(-c2ccccc2-c2nnn[nH]2)cc1NC(=O)NC(C)C [Example 246, 1-(4-(diisobutylamino)-2′-(1H-tetrazol-5-yl)-[1,1′-biphenyl]-3-yl)-3-isopropylurea]",1220
8,"CC(C)CN(CC(C)C)c1ccc(-c2ccccc2-c2nnn[nH]2)cc1NC(=O)Nc1cccc2cnccc12 [Example 247, 1-(4-(diisobutylamino)-2′-(1H-tetrazol-5-yl)-[1,1′-biphenyl]-3-yl)-3-(isoquinolin-5-yl)urea]",2760
9,"CNC(=O)c1ccccc1NC(=O)Nc1cc(-c2ccccc2-c2nnn[nH]2)ccc1N(CC(C)C)CC(C)C [Example 248, 2-(3-(4-(diisobutylamino)-2′-(1H-tetrazol-5-yl)-[1,1′-biphenyl]-3-yl)ureido)-N-methylbenzamide]",5070
10,CC(C)CN(CC(C)C)c1ccc(-c2ccccc2-c2nnn[nH]2)cc1NC(=O)Nc1ccc(C(F)(F)F)cc1 [Example 249],140
11,"CC(C)CN(CC(C)C)c1ccc(-c2ccccc2-c2nnn[nH]2)cc1NC(=O)Nc1ccc(F)c(C#N)c1 [Example 250, 1-(3-Cyano-4-fluorophenyl-3-(4-diisobutylamino)-2′-(1H-tetrazol-5-yl)-[1,1′-biphenyl]-3-yl)urea]",930
12,"CC(C)CN(CC(C)C)c1ccc(-c2ccccc2-c2nnn[nH]2)cc1NC(=O)Nc1cc(F)cc(Cl)c1 [Example 251, 1-(3-chloro-5-fluorophenyl)-3-(4-(diisobutylamino)-2′-(1H-tetrazol-5-yl)-[1,1′-biphenyl]-3-yl)urea]",90
13,"COc1cc(NC(=O)Nc2cc(-c3ccccc3-c3nnn[nH]3)ccc2N(CC(C)C)CC(C)C)ccc1F [Example 252, 1-(4-(diisobutylamino)-2′-(1H-tetrazol-5-yl)-[1,1′-biphenyl]-3-yl)-3-(4-fluoro-3-methoxyphenyl)urea]",1230
14,"CC(C)CN(CC(C)C)c1ccc(-c2ccccc2-c2nnn[nH]2)cc1NC(=O)Nc1cccc(-c2cnco2)c1 [Example 253, 1-(4-(diisobutylamino)-2′-(1H-tetrazol-5-yl)-[1,1′-biphenyl]-3-yl)-3-(3-(oxazol-5-yl)phenyl)urea]",2490
15,"CC(C)CN(CC(C)C)c1ccc(-c2ccccc2-c2nnn[nH]2)cc1NC(=O)Nc1cc(C(N)=O)ccc1Cl [Example 254, 4-chloro-3-(3-(4-(diisobutylamino)-2′-(1H-tetrazol-5-yl)-[1,1′-biphenyl]-3-yl)ureido)benzamide]",6070
16,"CC(C)CN(CC(C)C)c1ccc(-c2ccccc2-c2nnn[nH]2)cc1NC(=O)Nc1ccc(-c2cnco2)cc1 [Example 255, 1-(4-(diisobutylamino)-2′-(1H-tetrazol-5-yl)-[1,1′-biphenyl]-3-yl)-3-(4-(oxazol-5-yl)phenyl)urea]",30
17,"CC(C)CN(CC(C)C)c1ccc(-c2ccccc2-c2nnn[nH]2)cc1NC(=O)Nc1ccccc1-n1cncn1 [Example 256, 1-(2-(1H-1,2,4-triazol-1-yl)phenyl)-3-(4-(diisobutylamino)-2′-(1H-tetrazol-5-yl)-[1,1′-biphenyl]-3-yl)urea]",4180
18,"CC(C)CN(CC(C)C)c1ccc(-c2ccccc2-c2nnn[nH]2)cc1NC(=O)Nc1cccc(N=[N+]=[N-])c1 [Example 257, 1-(3-azidophenyl)-3-(4-(diisobutylamino)-2′-(1H-tetrazol-5-yl)-[1,1′-biphenyl]-3-yl)urea]",2.73
19,"CC(C)CN(CC(C)C)c1ccc(-c2ccccc2-c2nnn[nH]2)cc1NC(=O)Nc1ccc(F)c(Br)c1 [Example 258, 1-(3-bromo-4-fluorophenyl)-3-(4-(diisobutylamino)-2′-(1H-tetrazol-5-yl)-[1,1′-biphenyl]-3-yl)urea]",90
20,"CC(C)CN(CC(C)C)c1ccc(-c2ccccc2-c2nnn[nH]2)cc1NC(=O)Nc1ccc2sccc2c1 [Example 259, 1-(benzo[b]thiophen-5-yl)-3-(4-(diisobutylamino)-2′-(1H-tetrazol-5-yl)-[1,1′-biphenyl]-3-yl)urea]",2.44
21,CC(C)CN(CC(C)C)c1ccc(-c2ccccc2-c2nnn[nH]2)cc1NC(=O)Nc1ccc(C#N)cc1F [Example 260],6.48
22,"COc1cc(NC(=O)Nc2cc(-c3ccccc3-c3nnn[nH]3)ccc2N(CC(C)C)CC(C)C)ccc1C#N [Example 261, 1-(4-cyano-3-methoxyphenyl)-3-(4-(diisobutylamino)-2′-(1H-tetrazol-5-yl)-[1,1′-biphenyl]-3-yl)urea]",4310
23,"CC(C)CN(CC(C)C)c1ccc(-c2ccccc2-c2nnn[nH]2)cc1NC(=O)Nc1cccc(N(C)C)c1 [Example 262, 1-(4-(diisobutylamino)-2′-(1H-tetrazol-5-yl)-[1,1′-biphenyl]-3-yl)-3-(3-(dimethylamino)phenyl)urea]",190
24,"CC(C)CN(CC(C)C)c1ccc(-c2ccccc2-c2nnn[nH]2)cc1NC(=O)Nc1cccc(F)c1F [Example 263, 1-(2,3-difluorophenyl)-3-(4-(diisobutylamino)-2′-(1H-tetrazol-5-yl)-[1,1′-biphenyl]-3-yl)urea]",7.97
25,"Cc1ccc(NC(=O)Nc2cc(-c3ccccc3-c3nnn[nH]3)ccc2N(CC(C)C)CC(C)C)c(F)c1 [Example 264, 1-(4-(diisobutylamino)-2′-(1H-tetrazol-5-yl)-[1,1′-biphenyl]-3-yl)-3-(2-fluoro-4-methylphenyl)urea]",2.61
26,"CC(C)CN(CC(C)C)c1ccc(-c2ccccc2-c2nnn[nH]2)cc1NC(=O)Nc1cccc(S(N)(=O)=O)c1 [Example 266, 3-(3-(4-(diisobutylamino)-2′-(1H-tetrazol-5-yl)-[1,1′-biphenyl]-3-yl)ureido) benzenesulfonamide]",4490
